According to publication PMC11184559, “Identification and Validation of Compounds Targeting Leishmania major Leucyl-Aminopeptidase M17” (ACS Infectious Diseases, 2024):
Like-named read-outs stand apart in the source and are kept apart here.

Experiments:
[1] = tested on: RAW 264.7 murine macrophages; conditions: 100 μM, 48 h, MTT
Description: Blank contains only culture medium. […] Each assay was developed in triplicate.

[2] = tested on: LmjF.35.1670 (60S ribosomal protein L26, putative); experiment: Isothermal TPP (iTPP) thermal stabilization, LmjF.35.1670; assay type: binding, Leishmania major; conditions: L. major promastigote lysate, 47 °C, compound at 10× EC50 vs DMSO
Description: (§1) Cell lysates were obtained as detailed above. Isothermal TPP assays were performed as previously described[29] but here lysates were incubated at two temperatures: 28 and 47 °C. The first temperature (28 °C) acts as a control temperature at which the protein levels are not altered by the presence of the test compound. The second temperature (47 °C) is the Leishmania spp. median Tm (melting temperature or temperature 50%) according to our interim data. […] These samples were aliquoted and submitted to a temperature shock at the designated temperature for 3 min, then 3 min at room temperature, and finally 3 min on ice. The soluble part was isolated by ultracentrifugation (100,000g, 20 min, 4 °C).
(§2) All aspects of sample processing, TMT-labeling, fractionation by HPLC into 10 fractions, LC-MS/MS, and protein identification and quantitation were described previously.[28],[68] Proteins with less than three peptides and those with increased stability at 28 °C were disregarded.
(§3) Proteins were identified by searching the MS and MS/MS data for the peptides against L. major strain Friedlin (TriTryp version 61, tritrypdb.org) using MaxQuant (http://maxquant.org/, version 2.1.4.0). All proteomics data sets have been deposited to the ProteomeXchange Consortium via the PRIDE[69] partner repository with the identifier PXD00000. Data were analyzed with Perseus v 1.6.15.[70] The reporter intensities of each protein were extracted and normalized to the control temperature reporter intensity (28 °C), then these normalized values were used to calculate the log2 transformed fold-changes (FC) of […] samples. Proteins stabilized (log2 FC > 1 in both replicates) were selected as putative hits.

[3] = tested on: LmLAP-overexpressing L. major promastigotes; experiment: Drug sensitivity assay (resazurin), LmLAP-overexpressing L. major promastigotes; assay type: cell-based; conditions: Leishmania major
Description: The basic L. major cytosolic leucyl aminopeptidase gene (LmjF.23.0950) was synthesized (GeneArt, Invitrogen) and cloned into the overexpression vector pIRT1_SAT by using BglII restriction sites. The pIRT1_SAT_LmLAP construct was sequenced to confirm correct sequence. Mid log phase L. major cells (1 × 10^7 cells) were transfected with 10 μg of heat-sterilized DNA using the Human T-Cell Nucleofector kit and AMAXA Nucleofector electroporator (program V-033). After a 24 h recovery period, nourseothricin was added to cultures to a final concentration of 100 μg/mL.
(§4) L. major promastigotes were seeded in 96-well plates at 5 × 10^4/mL, exposed to 2-fold serial dilutions of test compounds, and incubated at 28 °C for 72 h. Resazurin was, then, added to each well to a final concentration of 50 μM, and fluorescence was measured after 2–3 h (excitation of 528 nm and emission of 590 nm). The EC50 was calculated by processing the collected data by GRAFIT (version 5.0.4, Erithacus Software) and fitting them to the following two-parameter equation: [drawing 6] 6 where [I] is the inhibitor concentration, and m is the slope. Experiments were performed on at least three independent biological replicates. Data are presented as the weighted mean ± standard deviation.

[4] = tested on: LmjF.11.0630 (metallo-peptidase, Clan MF, Family M17); experiment: Isothermal TPP (iTPP) thermal stabilization, LmjF.11.0630; assay type: binding, Leishmania major; conditions: L. major promastigote lysate, 47 °C, compound at 10× EC50 vs DMSO
Description: as §1, §2, §3

[5] = tested on: parental (WT) L. major promastigotes; experiment: Drug sensitivity assay (resazurin), parental L. major promastigotes; assay type: cell-based
Description: L. major promastigotes were cultured in HOMEM (Gibco) supplemented with 10% heat inactivated FBS at 28 °C.
as §4

[6] = tested on: LmjF.33.2570 (metallo-peptidase, Clan MF, Family M17); experiment: Isothermal TPP (iTPP) thermal stabilization, LmjF.33.2570; assay type: binding, Leishmania major; conditions: L. major promastigote lysate, 47 °C, compound at 10× EC50 vs DMSO
Description: as §1, §2, §3

[7] = tested on: L. donovani intracellular amastigotes; experiment: Leishmania donovani intracellular (intramacrophage) assay, single concentration; assay type: cell-based; conditions: 96 h, intracellular amastigotes in macrophages, Hoechst imaging; for Inhibition of L. donovani proliferation (%): 50 μM; for inhibition at 50 µM: Leishmania donovani, Macrophage, read-out: Inhibition of L. donovani proliferation (%)
Description: The effect of the compounds selected as inhibitors of rLmLAP on the proliferation of L. donovani amastigotes was evaluated at a concentration of 50 μM. Macrophage cultures (ECACC, catalog number: 88081201) were used as host cells. Parasites were incubated with 4.27× 10^7 macrophages, at a multiplicity of infection (MOI) of 5, at 37 °C with 5% CO2, overnight in DMEM medium supplemented with 4.5 g/L glucose and glutamine and 10% FBS, in a Millicell HY T-600 three-layer culture flask (Merck Millipore, Solna, Sweden). […] Macrophages were incubated for another 24 h in the above conditions with 133 μL of fresh DMEM medium prewarmed at 37 °C and supplemented with 10% FBS to obtain a high count of intracellular amastigotes.
Forty-two hours after macrophage infection, compounds (50 μM, 250 nL in DMSO) were dispensed using LabCyte ECHO into each well of 384-well dark flat bottom plates (Corning, New York, USA). The plates were incubated at 37 °C, 5% CO2, for 4 h (without compounds, with DMSO, to determine the initial level of infection) and for 96 h (with and without compounds).

[8] = tested on: LmjF.23.0040 (peroxidoxin); experiment: Isothermal TPP (iTPP) thermal stabilization, LmjF.23.0040; assay type: binding, Leishmania major; conditions: L. major promastigote lysate, 47 °C, compound at 10× EC50 vs DMSO
Description: as §1, §2
Proteins were identified by searching the MS and MS/MS data for the peptides against L. major strain Friedlin (TriTryp version 61, tritrypdb.org) using MaxQuant (http://maxquant.org/, version 2.1.4.0). All proteomics data sets have been deposited to the ProteomeXchange Consortium via the PRIDE[69] partner repository with the identifier PXD00000. Data were analyzed with Perseus v 1.6.15.[70] […]

[9] = 72 h, read-out: EC50 (weighted mean), LmLAP-overexpressing (LAP-OE) L. major promastigotes
[10] = read-out: EC50 (LAP-OE), representative curve
[11] = Leishmania major; value of the specific curve shown in Figure 4; read-out: EC50 (WT), representative curve

SMILES	Maximum inhibitory effect, RAW 264.7 macrophage cell line [1]	Enrichment (log2) replica A, LmjF.35.1670 [2]	Enrichment (log2) replica B, LmjF.35.1670 [2]	EC50 [3, 9]	EC50 [3, 10]	Enrichment (log2) replica A, LmjF.11.0630 [4]	Enrichment (log2) replica B, LmjF.11.0630 [4]	EC50 ([5]; Leishmania major, 72 h, resazurin; weighted mean ± SD (n = 5); read-out: EC50 (weighted mean), parental (WT) L. major promastigotes)	EC50 [5, 11]	Enrichment (log2) replica A, LmjF.33.2570 [6]	Enrichment (log2) replica B, LmjF.33.2570 [6]	Inhibition of L. donovani proliferation (%) [7]	inhibition at 50 µM [7]	Enrichment (log2) replica A, LmjF.23.0040 [8]	Enrichment (log2) replica B, LmjF.23.0040 [8]	EC50 ([5]; Leishmania major; 72 h, resazurin; weighted mean ± SD (n = 5); read-out: EC50 (weighted mean), parental (WT) L. major promastigotes)
COc1ccc(Cc2c(N)nc(-c3ccccn3)nc2N)cc1 [DDD00057570]	52%	1.36 log2	1.64 log2	7 ± 1 µM	6.9 ± 1 µM	1.47 log2	1.34 log2	1.8 ± 0.2 µM	1.1 ± 0.2 µM	1.38 log2	1.17 log2	98.4 ± 2.9%	98 ± 2.9%			
O=C(c1cccs1)N(CCCn1ccnc1)c1nc2ccccc2s1 [DDD00097924]		1.71 log2	1.97 log2	11 ± 1 µM	7.3 ± 1.4 µM	2.19 log2	1.99 log2		1.83 ± 0.2 µM	1.97 log2	1.76 log2	77.8 ± 3.1%	78%	1.31 log2	1.21 log2	3 ± 0.2 µM
